This note sets out measurements from US20210253562A1, “ACYLSUFONAMIDE COMPOUNDS USEFUL AS EP3 RECEPTOR ANTAGONISTS” (Janssen Pharmaceutica NV, priority 2018, published 2021).

pIC50, pKi: −log10 of the molar value. Where two headings read alike, the source gives them in different places.

The term pKi denotes the negative decadic logarithm of the Ki, by convention in mol/L. A higher pKi goes with a small Ki. A word on the pIC50: it is −log10 of the IC50, conventionally taken in molar units. By Ki is commonly meant a dissociation constant, usually derived from enzyme kinetics or from competition with a known ligand. Low readings indicate higher affinity, high ones lower affinity.

The target of assay [1] is T1, EP3 membrane (EP3 receptor) (Homo sapiens, UniProt P43115).
T1 construct: purchased Millipore HTS092M
T1 sequence (P43115 1-390): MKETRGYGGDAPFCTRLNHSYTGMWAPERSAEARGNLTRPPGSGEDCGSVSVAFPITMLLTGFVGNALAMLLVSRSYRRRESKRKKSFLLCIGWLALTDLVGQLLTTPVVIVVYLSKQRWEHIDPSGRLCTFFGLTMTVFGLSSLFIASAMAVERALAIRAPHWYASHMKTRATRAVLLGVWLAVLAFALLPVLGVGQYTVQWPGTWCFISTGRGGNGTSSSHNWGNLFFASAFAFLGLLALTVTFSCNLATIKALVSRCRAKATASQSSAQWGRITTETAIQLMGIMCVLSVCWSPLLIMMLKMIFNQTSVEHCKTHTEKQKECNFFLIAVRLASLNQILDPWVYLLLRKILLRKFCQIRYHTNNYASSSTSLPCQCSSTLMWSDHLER
Description: [3H]-PGE2 binding; EP3 competition binding (SPA). The settings on record: for Ki: unit nM. Put shortly: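 Ki derived from one-site nonlinear regression of scintillation proximity counts after 2 h room-temperature equilibration. Serially diluted (1:3) compounds competed against [3H]-PGE2 (2 nM) for EP3 receptor membranes (2 μg/well) in pH 7.4 Tris buffer with 10 mM MgCl2, 1 mM EDTA, 0.1% DMSO.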

For assay [2], the target named is T2, CHO cells over-expressing the EP3 receptor (Homo sapiens, UniProt P43115).
T2 construct: expressed in transfected cells; host or cells: CHO cells
T2 sequence (P43115 1-390): T1 sequence (P43115 1-390)
Description: CHO cell cAMP assay; EP3 cAMP antagonist dose response (sulprostone reference), HTRF. It counts as cell-based. Conditions: sulprostone 700 nM (EC80) and FSK 2 μM (EC70); read-out: CHO_cAMP IC50. The procedure: Biological Example 2: CHO Cell cAMP Assay
This assay monitored the cAMP generation in CHO cells over-expressing the EP3 receptor in the presence or absence of antagonist stimulated with Forskolin (FSK, CAS No. 66428-89-5) and a known EP3 Agonist (sulprostone, CAS No. 60325-46-4). For detection, a homogeneous competitive immunoassay (Time Resolved Fluorescence Energy Transfer (hTR-FRET)) was used.
Cells (6K cells per well) were plated in Poly-D-Lysine coated plates the day before the assay was to be run and were incubated at 37° C. One hour before the assay the media was removed and replaced with assay buffer (500 mL HBSS (+Ca)+2.5 mL 1M HEPES+6.66 mL 7.5% BSA) (starved at 37° C.). At the start of the assay the buffer was removed from the cells and replaced with buffer containing test compound(s). Sulprostone at an EC80 dose (700 nM) and FSK at an EC70 dose (2 μM) were added to initiate the reaction (37° C. for 30 minutes).
FSK increases cAMP production and sulprostone decreases cAMP production produced by FSK. In this assay, EP3 antagonists will increase the cAMP to the level of cAMP generated by FSK alone.
The reaction was terminated with the addition of cAMP detection reagents (labeled cAMP and labeled cAMP antibody in lysis buffer (HTRF reagent, which utilizes a cryptate-labeled anti-cAMP and d2-labeled cAMP-d2 is an HTRF acceptor fluorophore)). Approximately one hour later the plates were read on an Envision (Perkin Elmer) in HTRF mode. Well results were calculated based on a ratio of counts at 665 nm and 615 nm (data output was a calculation of the ratio: (read @665 nm/read @ 615 nm)*1000. For test compounds dosed serially, well results were converted to nM cAMP using a cAMP standard run on each plate. nM cAMP from a set of wells dosed with test compound(s) were plotted. nM cAMP was calculated for each well from a standard curve located on each plate (P1-12 and P13-24) by first calculating the slope and deriving the intercept(b):
[formula] NScAMP_s tan dard_cruve=m(nM cAMP_s tan dard_curve)+b
NSP, NSN, NSsample were converted to nM cAMP using the following equation: […]
IC50 values were determined from a […] (Hill equation) of a single 11-point compound dosing. A best-fit curve was determined by the minimum sum of squares method plotting cAMP produced vs compound concentration.

For the compound `O=C(NC/C=C1\CCCc2cnn(C3CCN(c4ccccn4)CC3)c21)NS(=O)(=O)c1cc(Cl)c(Cl)s1` [Compound #140, (E)-4,5-dichloro-N-((2-(1-(1-(pyridin-2-yl)piperidin-4-yl)-1,4,5,6-tetrahydro-7H-indazol-7-ylidene)ethyl)carbamoyl)thiophene-2-sulfonamide], the negative logarithm of the Ki (pKi) in assay [1] was 8.10. Besides, the negative-log IC50 (pIC50) in assay [2] was 7.92.

In assay [1], `O=C(NS(=O)(=O)c1ccc(Cl)cc1)OC/C=C1\CC(F)(F)Cc2cnn(Cc3ccc(Cl)cc3Cl)c21` [Compound #37, (E)-2-(1-(2,4-dichlorobenzyl)-5,5-difluoro-1,4,5,6-tetrahydro-7H-indazol-7-ylidene)ethyl ((4-chlorophenyl)sulfonyl)carbamate] had a pKi of 6.97. Besides, the pIC50 in assay [2] is 7.06.

On to `O=C(NC/C=C1\CCCc2cn(Cc3ccc4ccccc4c3)nc21)NS(=O)(=O)c1cc(Cl)c(Cl)s1` [Compound #87, (E)-4,5-dichloro-N-((2-(2-(naphthalen-2-ylmethyl)-2,4,5,6-tetrahydro-7H-indazol-7-ylidene)ethyl)carbamoyl)thiophene-2-sulfonamide], for which the negative logarithm of the Ki (pKi) in assay [1] was 6.96. Besides, the negative-log IC50 (pIC50) in assay [2] was 6.36.

Compound `COc1ccccc1S(=O)(=O)NC(=O)CC/C=C1\CCCc2cnn(Cc3ccc(Cl)cc3Cl)c21` [Compound #44, (E)-4-(1-(2,4-dichlorobenzyl)-1,4,5,6-tetrahydro-7H-indazol-7-ylidene)-N-((2-methoxyphenyl)sulfonyl)butanamide] gave a pKi in assay [1] of 7.02. Besides, in assay [2], the pIC50 was 6.75.

In assay [1], `O=C(NC/C=C1\CCCc2cnn(-c3ccc4ccccc4c3)c21)NS(=O)(=O)c1cc(Cl)c(Cl)s1` [Compound #79, (E)-4,5-dichloro-N-((2-(1-(naphthalen-2-yl)-1,4,5,6-tetrahydro-7H-indazol-7-ylidene)ethyl)carbamoyl)thiophene-2-sulfonamide] came in with an inhibition constant (Ki) of 0.4 nM. In addition, in assay [2], the negative-log IC50 (pIC50) was 8.70.

In assay [1], `O=C(CC/C=C1\CCCc2cnn(-c3cccc(-c4ccc(Cl)cc4Cl)c3)c21)NS(=O)(=O)c1cc(Cl)c(Cl)s1` [Compound #53, (E)-4-(1-(2′,4′-dichloro-[1,1′-biphenyl]-3-yl)-1,4,5,6-tetrahydro-7H-indazol-7-ylidene)-N-((4,5-dichlorothiophen-2-yl)sulfonyl)butanamide] gave a pKi of 8.40. In assay [2], the pIC50 is 7.74.

The compound `O=C(NC/C=C1\CCCc2cnn(C3CCN(c4ccc(F)cc4)CC3)c21)NS(=O)(=O)c1cc(Cl)c(Cl)s1` [Compound #123, (E)-4,5-dichloro-N-((2-(1-(1-(4-fluorophenyl)piperidin-4-yl)-1,4,5,6-tetrahydro-7H-indazol-7-ylidene)ethyl)carbamoyl)thiophene-2-sulfonamide] gave a pKi in assay [1] of 9.00. In addition, the pIC50 in assay [2] is 8.22.

In the case of `COc1ccc(S(=O)(=O)NC(=O)NC/C(F)=C2\CCCc3cnn(Cc4ccc(Cl)cc4Cl)c32)cc1Cl` [Compound #143, (Z)-3-chloro-N-((2-(1-(2,4-dichlorobenzyl)-1,4,5,6-tetrahydro-7H-indazol-7-ylidene)-2-fluoroethyl)carbamoyl)-4-methoxybenzenesulfonamide], the pKi in assay [1] is 8.52. The pIC50 in assay [2] was 7.74.

In assay [1], `O=C(NC/C(F)=C1/CCc2cnn(-c3ccc(C(F)(F)F)cc3)c21)NS(=O)(=O)c1cc(Cl)c(Cl)s1` [Compound #137, (E)-4,5-dichloro-N-((2-fluoro-2-(1-(4-(trifluoromethyl)phenyl)-4,5-dihydrocyclopenta[c]pyrazol-6(1H)-ylidene)ethyl)carbamoyl)thiophene-2-sulfonamide] gave a pKi of 6.66. In addition, the pIC50 in assay [2] was 6.31.

On to `COc1ccc(S(=O)(=O)NC(=O)CC/C=C2\CCCc3cnn(Cc4ccc(Cl)cc4Cl)c32)cc1` [Compound #30, (E)-4-(1-(2,4-dichlorobenzyl)-1,4,5,6-tetrahydro-7H-indazol-7-ylidene)-N-((4-methoxyphenyl)sulfonyl)butanamide], for which the pKi in assay [1] is 7.59. Moreover, in assay [2], the pIC50 was 7.46.

Compound `O=C(/C=C/C=C1\CCCc2cnn(Cc3ccc(Cl)cc3Cl)c21)NS(=O)(=O)c1cc(Cl)c(Cl)s1` [Compound #6, (E)-4-((E)-1-(2,4-dichlorobenzyl)-1,4,5,6-tetrahydro-7H-indazol-7-ylidene)-N-((4,5-dichlorothiophen-2-yl)sulfonyl)but-2-enamide] had a pKi in assay [1] of 7.08. Further, the pIC50 in assay [2] was 6.96.

`COc1ccc(Cl)cc1S(=O)(=O)NC(=O)NC/C=C1\COCc2cnn(Cc3ccc(Cl)cc3Cl)c21` [Compound #66, (Z)-5-chloro-N-((2-(1-(2,4-dichlorobenzyl)-1,4-dihydropyrano[4,3-c]pyrazol-7(6H)-ylidene)ethyl)carbamoyl)-2-methoxybenzenesulfonamide] showed a pKi in assay [1] of 8.40. For the same compound, in assay [2], the pIC50 is 7.68.

In assay [1], `O=C(NC/C=C1\CC(F)(F)Cc2cnn(Cc3ccc(Cl)cc3Cl)c21)NS(=O)(=O)c1ccc(Cl)cc1` [Compound #48, (E)-4-chloro-N-((2-(1-(2,4-dichlorobenzyl)-5,5-difluoro-1,4,5,6-tetrahydro-7H-indazol-7-ylidene)ethyl)carbamoyl)benzenesulfonamide] showed a negative logarithm of the Ki (pKi) of 8.30. In addition, in assay [2], the pIC50 was 7.85.

`O=C(NC/C(F)=C1/CCCn2nnc(Cc3ccccc3)c21)NS(=O)(=O)c1cc(Cl)c(Cl)s1` [Compound #135, (E)-N-((2-(3-benzyl-6,7-dihydro-[1,2,3]triazolo[1,5-a]pyridin-4(5H)-ylidene)-2-fluoroethyl)carbamoyl)-4,5-dichlorothiophene-2-sulfonamide] showed a pKi in assay [1] of 6.33. Besides, in assay [2], the negative logarithm of the IC50 (pIC50) was 5.34.

For the compound `O=C(CC/C=C1\CCCc2cnn(Cc3ccc(Cl)cc3Cl)c21)NS(=O)(=O)c1ccc(Cl)cc1` [Compound #24, (E)-N-((4-chlorophenyl)sulfonyl)-4-(1-(2,4-dichlorobenzyl)-1,4,5,6-tetrahydro-7H-indazol-7-ylidene)butanamide], the pKi in assay [1] was 8.52. For the same compound, in assay [2], the negative logarithm of the IC50 (pIC50) was 8.22.

In assay [1], `O=C(NC/C(F)=C1\CCCCc2cnn(Cc3ccc(Cl)cc3Cl)c21)NS(=O)(=O)c1ccc(Cl)cc1` [Compound #98, (Z)-4-chloro-N-((2-(1-(2,4-dichlorobenzyl)-4,5,6,7-tetrahydrocyclohepta[c]pyrazol-8(1H)-ylidene)-2-fluoroethyl)carbamoyl)benzenesulfonamide] showed a negative-log Ki (pKi) of 6.77. The pIC50 in assay [2] is 6.92.

Compound `O=C(NC/C=C1\COCc2cnn(Cc3ccc(Cl)cc3Cl)c21)NS(=O)(=O)c1cc(Cl)c(Cl)s1` [Compound #49, (Z)-4,5-dichloro-N-((2-(1-(2,4-dichlorobenzyl)-1,4-dihydropyrano[4,3-c]pyrazol-7(6H)-ylidene)ethyl)carbamoyl)thiophene-2-sulfonamide] gave a Ki in assay [1] of 0.4 nM. In assay [2], the pIC50 was 9.00.

In turn, `O=C(CC/C=C1\COCc2cnn(Cc3ccc(Cl)cc3Cl)c21)NS(=O)(=O)c1cc(Cl)c(Cl)s1` [Compound #57, (Z)-4-(1-(2,4-dichlorobenzyl)-1,4-dihydropyrano[4,3-c]pyrazol-7(6H)-ylidene)-N-((4,5-dichlorothiophen-2-yl)sulfonyl)butanamide] showed a pKi in assay [1] of 9.00. The pIC50 in assay [2] was 8.52.

On to `COc1ccc(F)cc1S(=O)(=O)NC(=O)NC/C=C1\COCc2cnn(Cc3ccc(Cl)cc3Cl)c21` [Compound #64, (Z)—N-((2-(1-(2,4-dichlorobenzyl)-1,4-dihydropyrano[4,3-c]pyrazol-7(6H)-ylidene)ethyl)carbamoyl)-5-fluoro-2-methoxybenzenesulfonamide], for which the pKi in assay [1] is 7.92. The pIC50 in assay [2] is 7.09.
